This is an account of results in patent US9828374B2, “Substituted pyrazino[2,2-a]isoquinoline derivatives” (Hoffmann-La Roche Inc., priority 2014, dated 2017).

One experiment addresses mouse TAAR1 (Mus musculus (Mouse), UniProt Q923Y8). The experiment in a line: Radioligand binding assay on mouse TAAR1. The settings on record: for Ki: mouse TAAR1, HEK-293 membranes, first value of the mouse/rat pair. The protocol: (§1) Construction of TAAR Expression Plasmids and Stably Transfected Cell Lines
(§2) For the construction of expression plasmids the coding sequences of human, rat and mouse TAAR 1 were amplified from genomic DNA essentially as described by Lindemann et al..
(§3) The Expand High Fidelity PCR System (Roche Diagnostics) was used with 1.5 mM Mg^2+ and purified PCR products were cloned into pCR2.1-TOPO cloning vector (Invitrogen) following the instructions of the manufacturer. PCR products were subcloned into the pIRESneo2 vector (BD Clontech, Palo Alto, Calif.), and expression vectors were sequence verified before introduction in cell lines.
(§4) HEK293 cells (ATCC # CRL-1573) were cultured essentially as described by Lindemann et al. (2005). For the generation of stably transfected cell lines HEK293 cells were transfected with the pIRESneo2 expression plasmids containing the TAAR coding sequences (described above) with Lipofectamine 2000 (Invitrogen) according to the instructions of the manufacturer, and 24 hrs post transfection the culture medium was supplemented with 1 mg/ml G418 (Sigma, Buchs, Switzerland). After a culture period of about 10 d clones were isolated, expanded and tested for responsiveness to trace amines (all compounds purchased from Sigma) with the cAMP Biotrak Enzyme immunoassay (EIA) System (Amersham) following the non-acetylation EIA procedure provided by the manufacturer.
Radioligand Binding Assay on Mouse TAAR1
(§5) Membrane Preparation and Radioligand Binding.
(§6) HEK-293 cells stably expressing mouse TAAR1 were maintained at 37° C. and 5% CO2 in DMEM high glucose medium, containing fetal calf serum (10%, heat inactivated for 30 min at 56° C.), penicillin/streptomycin (1%), and 375 μg/ml geneticin (Gibco). Cells were released from culture flasks using trypsin/EDTA, harvested, washed twice with ice-cold PBS (without Ca^2+ and Mg^2+), pelleted at 1,000 rpm for 5 min at 4° C., frozen and stored at −80° C. Frozen pellets were suspended in 20 ml HEPES-NaOH (20 mM, pH 7.4) containing 10 mM EDTA and homogenized with a Polytron (PT 6000, Kinematica) at 14,000 rpm for 20 s. The homogenate was centrifuged at 48,000×g for 30 min at 4° C. Subsequently, the supernatant was removed and discarded, and the pellet resuspended in 20 ml HEPES-NaOH (20 mM, pH 7.4) containing 0.1 mM EDTA using the Polytron (20 s at 14,000 rpm). This procedure was repeated and the final pellet resuspended in HEPES-NaOH containing 0.1 mM EDTA and homogenized using the Polytron. Typically, aliquots of 2 ml membrane portions were stored at −80° C. With each new membrane batch the dissociation constant (Kd) was determined via a saturation curve. […] Nonspecific binding was defined as the amount of ^3[H]-(S)-4-[(ethyl-phenyl-amino)-methyl]-4,5-dihydro-oxazol-2-ylamine bound in the presence of 10 μM unlabeled ligand. All compounds were tested at a broad range of concentrations (10 pM to 10 μM) in duplicates. […] The 96 deep well plates were incubated for 1 hr at 4° C. Incubations were terminated by rapid filtration through Unifilter-96 plates (Packard Instrument Company) and glass filters GF/C (Perkin Elmer) presoaked for 1 hr in polyethylenimine (0.3%) and washed 3 times with 1 ml of cold binding buffer. After addition of 45 μl of Microscint 40 (PerkinElmer) the Unifilter-96 plate was sealed and after 1 hr the radioactivity counted using a TopCount Microplate Scintillation Counter (Packard Instrument Company).

The target in another experiment is rat TAAR1 (Rattus norvegicus (Rat), UniProt Q923Y9). The experiment in a line: Radioligand binding assay on rat TAAR1. The following applies: for Ki: rat TAAR1, HEK-293 membranes, second value of the mouse/rat pair. The protocol:
as §1, §2, §3, §4
Radioligand Binding Assay on Rat TAAR1
as §5
as §6, with “rat” for “mouse”, “[H]-(S)-4-[(ethyl-phenyl-amino)-methyl]-4,5-dihydro-oxazol-2-ylamine” for “^3[H]-(S)-4-[(ethyl-phenyl-amino)-methyl]-4,5-dihydro-oxazol-2-ylamine”, “[…]” for “pM”

Structures are written as SMILES.

Chain of mouse TAAR1 (Q923Y8 whole entry): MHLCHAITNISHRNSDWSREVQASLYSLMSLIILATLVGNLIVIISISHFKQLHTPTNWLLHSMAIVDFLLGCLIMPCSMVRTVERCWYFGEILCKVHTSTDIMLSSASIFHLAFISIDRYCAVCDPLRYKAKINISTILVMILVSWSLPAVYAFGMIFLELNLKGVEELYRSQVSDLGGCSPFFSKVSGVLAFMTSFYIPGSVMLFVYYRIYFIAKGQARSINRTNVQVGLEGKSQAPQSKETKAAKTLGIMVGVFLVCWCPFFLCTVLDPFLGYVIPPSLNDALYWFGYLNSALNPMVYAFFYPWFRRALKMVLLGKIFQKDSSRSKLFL
Chain of rat TAAR1 (Q923Y9 whole entry): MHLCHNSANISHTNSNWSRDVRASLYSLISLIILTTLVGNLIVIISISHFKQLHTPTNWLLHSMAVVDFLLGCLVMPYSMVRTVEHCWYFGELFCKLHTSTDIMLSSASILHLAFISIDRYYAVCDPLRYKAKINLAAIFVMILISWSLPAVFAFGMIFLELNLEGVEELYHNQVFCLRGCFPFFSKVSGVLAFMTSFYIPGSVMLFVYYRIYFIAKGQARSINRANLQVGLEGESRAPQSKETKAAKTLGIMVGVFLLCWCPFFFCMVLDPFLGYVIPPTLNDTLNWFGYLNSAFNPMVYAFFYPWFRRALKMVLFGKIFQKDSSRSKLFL

For the compound `COc1ccc(NC(=O)Nc2ccc3c(c2)CCN2CCNC[C@@H]32)cc1` [Example 36, (R)-1-(2,3,4,6,7,11b-hexahydro-1H-pyrazino[2,1-a]isoquinolin-9-yl)-3-(4-methoxyphenyl)urea], the Ki at mouse TAAR1 was 0.0101 µM; on rat TAAR1, 0.023 µM.

Take `c1cc2c(cc1Nc1nc(C3CC3)no1)CCN1CCNC[C@@H]21` [Example 37, N-[(11R)-2,3,4,6,7,11-hexahydro-1H-pyrazino[2,1-a]isoquinolin-9-yl]-3-cyclopropyl-1,2,4-oxadiazol-5-amine]: the Ki turned out to be 0.0347 µM on mouse TAAR1 and 0.198 µM on rat TAAR1.

As for `Fc1c(Nc2ncc(C3CC3)cn2)ccc2c1CCN1CCNC[C@@H]21` [Example 33, (11bR)-N-(5-cyclopropylpyrimidin-2-yl)-8-fluoro-2,3,4,6,7,11b-hexahydro-1H-pyrazino[2,1-a]isoquinolin-9-amine], the Ki at mouse TAAR1 is 0.0677 µM; on rat TAAR1, 0.105 µM.

`O=C(Nc1ccc2c(c1)CCN1CCNC[C@@H]21)c1ccc(Cl)cc1` [Example 3, N-[(11bR)-2,3,4,6,7,11b-hexahydro-1H-pyrazino[2,1-a]isoquinolin-9-yl]-4-chloro-benzamide]: the figures for the Ki at mouse TAAR1 and on rat TAAR1 were 0.0096 µM and 0.0562 µM, respectively.

In the case of `O=C(NCc1cccc(C(F)(F)F)c1)c1ccc2c(c1)CCN1CCNC[C@@H]21` [Example 43, (11bR)-N-[[3-(trifluoromethyl)phenyl]methyl]-2,3,4,6,7,11b-hexahydro-1H-pyrazino[2,1-a]isoquinoline-9-carboxamide], the Ki on mouse TAAR1 turned out to be 0.0301 µM; at rat TAAR1, 0.137 µM.

Turning to `FC(F)(F)c1cnc(Nc2ccc3c(c2)CCN2CCNC[C@H]32)cn1` [Example 12, (11bS)-N-[5-(trifluoromethyl)pyrazin-2-yl]-2,3,4,6,7,11b-hexahydro-1H-pyrazino[2,1-a]isoquinolin-9-amine], the results for the Ki at mouse TAAR1 and at rat TAAR1 were 0.219 µM and 1.98 µM, respectively.

For the compound `O=C(Nc1ccc2c(c1)CCN1CCNC[C@H]21)c1ccnc(C(F)(F)F)c1` [Example 9, N-[(11bS)-2,3,4,6,7,11b-hexahydro-1H-pyrazino[2,1-a]isoquinolin-9-yl]-2-(trifluoromethyl)pyridine-4-carboxamide], the results for the Ki at mouse TAAR1 and at rat TAAR1 were 0.0144 µM and 0.0142 µM, respectively.

For the compound `CCN(C[C@H]1COC(N)=N1)c1ccccc1` [^3[H]-(S)-4-[(ethyl-phenyl-amino)-methyl]-4,5-dihydro-oxazol-2-ylamine, reference compound], the Kd was approximately 0.0007 µM on mouse TAAR1 (mouse TAAR1 membranes, saturation curve, usual value, read-out: dissociation constant (Kd) of the radioligand) and approximately 0.0023 µM on rat TAAR1 (rat TAAR1 membranes, saturation curve, usual value, read-out: dissociation constant (Kd) of the radioligand).

Consider `c1cnc(Nc2ccc3c(c2)CCN2CCNC[C@@H]32)nc1` [Example 22, (11bR)-N-pyrimidin-2-yl-2,3,4,6,7,11b-hexahydro-1H-pyrazino[2,1-a]isoquinolin-9-amine], for which the results for the Ki at mouse TAAR1 and on rat TAAR1 were 0.537 µM and 3.92 µM, respectively.

Consider `FC(F)(F)c1nccc(Nc2ccc3c(c2)CCN2CCNC[C@@H]32)n1` [Example 5, (11bR)-N-[2-(trifluoromethyl)pyrimidin-4-yl]-2,3,4,6,7,11b-hexahydro-1H-pyrazino[2,1-a]isoquinolin-9-amine], for which the Ki at mouse TAAR1 was 0.0354 µM; at rat TAAR1, 0.0151 µM.

`FC(F)(F)c1cnc(Nc2ccc3c(c2)CCN2CCNC[C@@H]32)cn1` [Example 7, (11bR)-N-[5-(trifluoromethyl)pyrazin-2-yl]-2,3,4,6,7,11b-hexahydro-1H-pyrazino[2,1-a]isoquinolin-9-amine]: the Ki on mouse TAAR1 stood at 0.0329 µM; on rat TAAR1 it was 0.0356 µM.

As to `O=C(Nc1ccc2c(c1)CCN1CCNC[C@H]21)c1ccc(Cl)cc1` [Example 8, N-[(11bS)-2,3,4,6,7,11b-hexahydro-1H-pyrazino[2,1-a]isoquinolin-9-yl]-4-chloro-benzamide], the Ki on mouse TAAR1 was determined as 0.0075 µM; at rat TAAR1, 0.0063 µM.

With `O=C(Nc1cc2c(cc1F)[C@@H]1CNCCN1CC2)c1ccnc(C(F)(F)F)c1` [Example 16, N-[(11bR)-10-fluoro-2,3,4,6,7,11b-hexahydro-1H-pyrazino[2,1-a]isoquinolin-9-yl]-2-(trifluoromethyl)pyridine-4-carboxamide], the Ki on mouse TAAR1 stood at 0.175 µM; on rat TAAR1, 1.5 µM.
